Source: patent publication US12377194B2, “JAB1 inhibitory compositions for ossification and methods related thereto” (Emory University, priority 2011, dated 2025)

Legend:
Mouse C2C12 cells = experiment: Alkaline phosphatase (ALP) assay, cell based screen of JAB1 blockers with BMP-2; settings: cell based assay (FIG. 1-4)
Procedure: Mouse C2C12 cells and Dulbecco's modified Eagle's medium (DMEM) were purchased from ATCC (Manassas, VA). The non-heat inactivated fetal bovine serum (FBS) was purchased from HyClone Laboratories, Inc. (Logan, UT). The C2C12 cells at passages 4 to 7 were subcultured in T-75 cm2 flasks in DMEM supplemented with 10% FBS at 37° C. in 5% CO2 with humidification. When the flasks reached 80% confluence, the cells were trypsinized and seeded in triplicate at 200,000 cells/well in a 6-well plate for quantitative real-time RT-PCR and alkaline phosphatase (ALP) assays or at 50,000 cells/well in a 12-well plate for the dual-luciferase reporter assay.
The C2C12 cells were plated at 200,000 cells/well in 6-well plates and grown overnight in DMEM containing 10% FBS. On day 2, the culture medium was replaced with DMEM containing 2% FBS and the cells were treated with various concentrations of the JAB1-interacting compound for 24 hours. On day 3, the medium was replaced with fresh DMEM containing 2% FBS and the cells were treated with 50 ng/ml of BMP-2 for 72 hours. The cells were washed with phosphate-buffered saline (PBS) and lysed by addition of lysis buffer (10 mM Tris-HCl pH 8.0, 1 mM MgCl2 and 0.5% Triton X-100). The cell lysates were centrifuged for 5 minutes at 13,000×g. The supernatant was removed and the aliquots were assayed for ALP activity and protein amount. The ALP activity was measured in triplicate using an ALP assay kit (Sigma-Aldrich, St. Louis, MO) in microtiter plates. The protein amount was determined with Bio-Rad protein assay reagent (Bio-Rad, Hercules, CA) using bovine serum albumin (BSA) as a standard. The ALP activity (nmoles of p-nitrophenol per ml) was normalized to the protein amount (nmoles of p-nitrophenol per μg).

Harlan athymic rats = experiment: Collagen disc implantation with Jab1-blockers and BMP-2 in rat ectopic model; assay type: in vivo; design: Average (Xray score): scale not given here; settings: 100 ul, chest implant, 4 weeks
From the text: Harlan athymic rats about 5-6 weeks of age were chest implanted with a collagen disc and doses of G8 and R13 in combination with BMP-2. After 4 weeks the rats were sacrificed and evaluated for bone growth.

[1] = compound dose 2 mM + BMP-2 1.5 ug
[2] = compound dose 4 mM + BMP-2 1.5 ug
[3] = compound dose 6 mM + BMP-2 1.5 ug
[4] = compound dose 8 mM + BMP-2 1.5 ug
[5] = compound dose 11 mM + BMP-2 1.5 ug
[6] = compound dose 15 mM + BMP-2 1.5 ug
[7] = compound dose 19 mM + BMP-2 1.5 ug

## COc1cc2nccc(Oc3ccc(Br)c(C)c3)c2cc1OC [#SRJ-G8, 4-(4-bromo-3-methylphenoxy)-6,7-dimethoxyquinoline]
Mouse C2C12 cells
  ALP activity: improving ALP activity
Harlan athymic rats; [1]
  Average (Xray score): 3.5
  Results (bone made, n of 4): Bone made (4 of 4)
Harlan athymic rats; [2]
  Average (Xray score): 3.75
  Results (bone made, n of 4): Bone made (4 of 4)
Harlan athymic rats; [3]
  Average (Xray score): 3
  Results (bone made, n of 4): Bone made (3 of 4)
Harlan athymic rats; [4]
  Average (Xray score): 4
  Results (bone made, n of 4): Bone made (4 of 4)
Harlan athymic rats; [5]
  Average (Xray score): 1.25
  Results (bone made, n of 4): Bone made (1 of 4)
Harlan athymic rats; [6]
  Average (Xray score): 1.75
  Results (bone made, n of 4): Bone made (2 of 4)
Harlan athymic rats; [7]
  Average (Xray score): 0.75
  Results (bone made, n of 4): Bone made (1 of 4)

## COc1cc(OC)c(C=C2C(=O)Nc3cc(Cl)ccc32)c(OC)c1 [#SRJ-R13, 6-chloro-3-(2,4,6-trimethoxybenzylidene)indolin-2-one]
Mouse C2C12 cells
  ALP activity: improving ALP activity
Harlan athymic rats; [1]
  Average (Xray score): 1.75
  Results (bone made, n of 4): Bone made (3 of 4)
Harlan athymic rats; [2]
  Average (Xray score): 2.25
  Results (bone made, n of 4): Bone made (4 of 4)
Harlan athymic rats; [3]
  Results (bone made, n of 4): No bone (0 of 4)
Harlan athymic rats; [4]
  Results (bone made, n of 4): No bone (0 of 4)
Harlan athymic rats; [5]
  Results (bone made, n of 4): No bone (0 of 4)
Harlan athymic rats; [6]
  Results (bone made, n of 4): No bone (0 of 4)
Harlan athymic rats; [7]
  Results (bone made, n of 4): No bone (0 of 4)

## COc1cc(Nc2nccc(Nc3ccc(F)cc3)n2)cc(OC)c1 [P5, N^2-(3,5-dimethoxyphenyl)-N^4-(4-fluorophenyl)pyrimidine-2,4-diamine]
Mouse C2C12 cells
  ALP activity: improving ALP activity
